Earlier results in patent EP0112266B1, “Substituted tropyl and pseudotropyl benzoates and their use in migraine treatment” (MERRELL DOW FRANCE ET CIE, priority 1982, dated 1984).

Tests used:
[1] = target: T1, 5-HT M-receptor (Oryctolagus cuniculus, UniProt G1TUQ4); settings: potency as 5-HT M-receptor antagonist; literature values (Fozard et al, Eur. J. Pharmacol. 1978/1979)
T1 sequence (G1TUQ4 24-513): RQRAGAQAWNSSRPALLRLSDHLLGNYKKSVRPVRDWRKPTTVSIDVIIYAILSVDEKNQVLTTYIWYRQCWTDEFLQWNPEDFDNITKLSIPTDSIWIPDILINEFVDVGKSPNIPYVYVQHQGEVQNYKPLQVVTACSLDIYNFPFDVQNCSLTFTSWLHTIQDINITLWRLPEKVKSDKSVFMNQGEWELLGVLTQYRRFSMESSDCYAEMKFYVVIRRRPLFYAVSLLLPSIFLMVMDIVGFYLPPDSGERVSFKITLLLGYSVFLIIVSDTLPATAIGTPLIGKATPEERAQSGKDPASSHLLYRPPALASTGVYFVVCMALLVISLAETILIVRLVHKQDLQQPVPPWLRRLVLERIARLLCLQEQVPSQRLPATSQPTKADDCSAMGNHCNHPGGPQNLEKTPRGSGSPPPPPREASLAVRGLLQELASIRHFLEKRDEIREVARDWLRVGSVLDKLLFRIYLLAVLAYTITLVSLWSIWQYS

[2] = slow intravenous injection, 10 mg
[3] = system: isolated guinea pig ileum; settings: stated in Schultz et al, 1972

SMILES: CN1[C@@H]2CC[C@H]1C[C@@H](OC(=O)c1ccccc1)C2 [benzoyl tropine]
- pA2 [1]: 7.2

SMILES: CCN(CC)CCNC(=O)c1cc(Cl)c(N)cc1OC [metoclopramide]
- relief of acute migraine attack [2]: immediate relief

SMILES: CN1[C@@H]2CC[C@H]1C[C@@H](OC(=O)c1ccccc1Cl)C2 [tropyl 2-chlorobenzoate]
- spasmolytic- inducing activity [3]: spasmolytic- inducing activity
